Laboratory results published in US5811408A, “2'-deoxy-2'-(substituted or unsubstituted)methylidene-4'-thionucleosides” (Yamasa Corporation, priority 1994, dated 1998).
Converted amounts (≈) assume the structure as drawn.

Legend:
KK-47 = assay: Proliferation Inhibitory Activity on Cultured Cells (in vitro test, MTT), KK-47; format: cell-based; conditions: Homo sapiens; KK-47, Bladder carcinoma; 72 hours, 37° C.
Experimental: (§1) Proliferation Inhibitory Activity on Cultured Cells (in vitro test)
(§2) Cells in the logarithmic growth phase were suspended in a medium for inoculation, and seeded into each well of a 96-well plate so that the number of the cells would be 3×10^3 /180 microliters/well. To each well was added 20 microliters of a sample solution or water, and incubation was carried out at 37° C. for 72 hours. After incubation, 25 microliters of an MTT solution (2 mg/ml, prepared in PBS) was added, and incubation was further conducted at 37° C. for 4 hours. The medium was removed, and the MTT-formazane formed was dissolved in 200 microliters of dimethyl sulfoxide. The absorbance at 540 nm of this solution was measured by a microplate reader. The proliferation inhibitory rate obtained by calculation was plotted on a graph paper against the concentration of the sample. Then, the 50% inhibitory concentration (IC50) was determined for evaluation of the antitumor effect.
(§3) The results of the test carried out by using the compound of the present invention (the beta-anomer of 2'-deoxy-2'-methylidene-4'-thiocytidine synthesized in Example 1) are shown in Table 1.

HT1080 = assay: Proliferation Inhibitory Activity on Cultured Cells (in vitro test, MTT), HT1080; format: cell-based; conditions: Homo sapiens, HT-1080; HT1080, Soft tissue sarcoma; 72 hours, 37° C.
Experimental: as §1, §2, §3

QG-90 = assay: Proliferation Inhibitory Activity on Cultured Cells (in vitro test, MTT), QG-90; format: cell-based; conditions: Homo sapiens; QG-90, Small cell lung carcinoma; 72 hours, 37° C.
Experimental: as §1, §2, §3

murine S-180 cells = assay: Antitumor Activity in Mice Implanted with S-180 Cells (in vivo test); conditions: ICR mice, caudal vein, days 1-5 and 7-10; for Weight of Tumor (mean value ± SE): tumor removed on day 35, control 8.70 ± 1.31; for Inhibitory Rate: tumor weight on day 35
Description: Antitumor Activity in Mice Implanted with S-180 Cells (in vivo test)
ICR mice were intraperitoneally inoculated with murine S-180 cells. On day 0, ascites was collected from the ICR mice, and Sarcoma 180 cells were subcutaneously implanted into ICR mice so that the number of the cells would be 5×10^6 /mouse. A sample was suspended in Macrogol-400/Tween 80 (6:0.8) so that the concentration thereof would be 10 times the concentration at the time of the administration thereof. Thereafter, the suspension was diluted to 1/10 with physiological saline, and injected once a day into the caudal vein of the mice on days 1-5, and on days 7-10. The antitumor effect (inhibitory rate) was evaluated by measuring the weight of the tumor removed on day 35.
The results of the test carried out by using the compound of the present invention (the beta-anomer of 2'-deoxy-2'-methylidene-4'-thiocytidine synthesized in Example 1) are shown in Table 3.

MG-63 = assay: Proliferation Inhibitory Activity on Cultured Cells (in vitro test, MTT), MG-63; format: cell-based; conditions: Homo sapiens; MG-63, Osteosarcoma; 72 hours, 37° C.
Experimental: as §1, §2, §3

HEp-2 = assay: Proliferation Inhibitory Activity on Cultured Cells (in vitro test, MTT), HEp-2; format: cell-based; conditions: Homo sapiens; HEp-2, Esophagus carcinoma; 72 hours, 37° C.
Experimental: as §1, §2, §3

HCT-15 = assay: Proliferation Inhibitory Activity on Cultured Cells (in vitro test, MTT), HCT-15; format: cell-based; conditions: Homo sapiens; HCT-15, Colon adenocarcinoma; 72 hours, 37° C.
Experimental: as §1, §2, §3

QG-96 = assay: Proliferation Inhibitory Activity on Cultured Cells (in vitro test, MTT), QG-96; format: cell-based; conditions: QG-96, Small cell lung carcinoma; 72 hours, 37° C.
Experimental: as §1, §2, §3

SK-Mel-28 = assay: Proliferation Inhibitory Activity on Cultured Cells (in vitro test, MTT), SK-Mel-28; format: cell-based; conditions: Homo sapiens; SK-Mel-28, Melanoma; 72 hours, 37° C.
Experimental: as §1, §2, §3

A375 = assay: Proliferation Inhibitory Activity on Cultured Cells (in vitro test, MTT), A375; format: cell-based; conditions: Homo sapiens, A-375; A375, Melanoma; 72 hours, 37° C.
Experimental: as §1, §2, §3

HOS = assay: Proliferation Inhibitory Activity on Cultured Cells (in vitro test, MTT), HOS; format: cell-based; conditions: Homo sapiens, Osteosarcoma, 72 hours, 37° C.
Experimental: as §1, §2, §3

NUGC-4 = assay: Proliferation Inhibitory Activity on Cultured Cells (in vitro test, MTT), NUGC-4; format: cell-based; conditions: Homo sapiens; NUGC-4, Stomach adenocarcinoma; 72 hours, 37° C.
Experimental: as §1, §2, §3

Lu-65 = assay: Proliferation Inhibitory Activity on Cultured Cells (in vitro test, MTT), Lu-65; format: cell-based; conditions: Homo sapiens; Lu-65, Large cell lung carcinoma; 72 hours, 37° C.
Experimental: as §1, §2, §3

MCF-7 = assay: Proliferation Inhibitory Activity on Cultured Cells (in vitro test, MTT), MCF-7; format: cell-based; conditions: Homo sapiens, MCF7; MCF-7, Breast carcinoma; 72 hours, 37° C.
Experimental: as §1, §2, §3

[1] = tested on: murine P388 leukemia cells; assay: Antitumor Activity in mice bearing P388 leukemia (in vivo test); conditions: BDF1 mice, 10 mg/kg intraperitoneally once a day, Day 1, 2, 5, 6
Experimental: Antitumor Activity in mice bearing P388 leukemia (in vivo test)
DBA/2 mice were intraperitoneally inoculated with murine P388 leukemia cells. On day 0, ascites was collected from the DBA/2 mice, and P388 leukemia cells were intraperitoneally implanted into BDF1 mice so that the number of the cells would be 1×10^6 /mouse. A sample was dissolved in dimethyl sulfoxide, and this sample solution was intraperitoneally administered to the mice once a day. The antitumor effect was evaluated by comparing the survival time of the administered group with that of the control group.
The results of the test carried out by using the compound of the present invention (the beta-anomer of 2'-deoxy-2'-methylidene-4'-thiocytidine synthesized in Example 1) are shown in Table 2.

PC-10 = assay: Proliferation Inhibitory Activity on Cultured Cells (in vitro test, MTT), PC-10; format: cell-based; conditions: Homo sapiens, PC10; PC-10, Lung squamous cell carcinoma; 72 hours, 37° C.
Experimental: as §1, §2, §3

Mia-PaCa-2 = assay: Proliferation Inhibitory Activity on Cultured Cells (in vitro test, MTT), Mia-PaCa-2; format: cell-based; conditions: Homo sapiens; Mia-PaCa-2, Pancreas carcinoma; 72 hours, 37° C.
Experimental: as §1, §2, §3

KKLS = assay: Proliferation Inhibitory Activity on Cultured Cells (in vitro test, MTT), KKLS; format: cell-based; conditions: Stomach adenocarcinoma, 72 hours, 37° C.
Experimental: as §1, §2, §3

Colo320DM = assay: Proliferation Inhibitory Activity on Cultured Cells (in vitro test, MTT), Colo320DM; format: cell-based; conditions: Homo sapiens, COLO 320DM, Colon adenocarcinoma, 72 hours, 37° C.
Experimental: as §1, §2, §3

C=C1[C@H](n2ccc(N)nc2=O)S[C@H](CO)[C@H]1O [Compound of the Invention, 2'-deoxy-2'-methylidene-4'-thiocytidine]
IC50 (KK-47): 0.38 µg/mL (≈ 1.49 µM)
IC50 (HT1080): 0.21 µg/mL (≈ 0.823 µM)
IC50 (QG-90): 0.32 µg/mL (≈ 1.25 µM)
Weight of Tumor (mean value ± SE) (murine S-180 cells; 20 mg/kg/day): 6.39 ± 1.07
Inhibitory Rate (murine S-180 cells; 20 mg/kg/day): 26.6%
Weight of Tumor (mean value ± SE) (murine S-180 cells; 100 mg/kg/day): 0.80 ± 0.24
Inhibitory Rate (murine S-180 cells; 100 mg/kg/day): 90.8%
IC50 (MG-63): 0.53 µg/mL (≈ 2.08 µM)
IC50 (HEp-2): 4.1 µg/mL (≈ 16.1 µM)
IC50 (HCT-15): 0.65 µg/mL (≈ 2.55 µM)
IC50 (QG-96): 0.5 µg/mL (≈ 1.96 µM)
IC50 (SK-Mel-28): 0.092 µg/mL (≈ 0.36 µM)
IC50 (A375): 0.25 µg/mL (≈ 0.979 µM)
IC50 (HOS): 0.45 µg/mL (≈ 1.76 µM)
IC50 (NUGC-4): 0.6 µg/mL (≈ 2.35 µM)
IC50 (Lu-65): 0.075 µg/mL (≈ 0.294 µM)
IC50 (MCF-7): 0.3 µg/mL (≈ 1.18 µM)
MST (Median survival time) ([1]; control (DMSO) 9.0 days): 12.0 days
T/C ([1]; survival vs control (DMSO) = 100): 133%
IC50 (PC-10): 1.5 µg/mL (≈ 5.88 µM)
IC50 (Mia-PaCa-2): 2.4 µg/mL (≈ 9.4 µM)
IC50 (KKLS): 0.77 µg/mL (≈ 3.02 µM)
IC50 (Colo320DM): 0.06 µg/mL (≈ 0.235 µM)
